Source: patent US4647457A, “Penicillanic acid derivatives” (Hoffmann-La Roche Inc., priority 1983, dated 1987)
Where two headings read alike, the source gives them in different places.

Experiments:
[1] = molecular target: β-lactamase from Proteus vulgaris 1028; assay: β-lactamase inhibition, nitrocefin cleavage, isolated enzyme from P. vulgaris 1028; assay type: biochemical; conditions: 15 min pre-incubation, nitrocefin substrate, 37° C., pH 7.0
Procedure: (§1) Various β-lactamases can be isolated from penicillin-resistant or cephalosphorin-resistant strains of bacteria such as Klebsiella pneumoniae NCTC 418, Proteus vulgaris 1028 and E. coli RTEM. For this purpose, the corresponding strains are cultivated in Tryptic Soy Broth (Difco) and harvested by centrifugation in the late logarithmic growth phase (when required 50-100 mg/l of ampicillin are added to the medium towards the end of the log-phase in order to induce the β-lactamase). The thus-obtained bacteria mass is treated with 10 mM of phosphate buffer (pH 7.0); the cells are broken open with ultrasound (Biosonic III, Bronwill; 3-5 min. impulse) while cooling. The mixture is centrifuged (20,000 r/min.) for 20-30 minutes and there is obtained a clear crude extract which can be used as the enzyme source (β-lactamase source) and which can be frozen at -20° C. for several months without loss of activity.
(§2) The determination of the activity of the isolated β-lactamases can be carried out according to the method of O'Callaghan, C. H. et al. [Antimicr. Ag. Chemother. 1, 283-288 (1972)] with the chromogenic cephalosporin nitrocefin (Glaxo). The required experimental batch contains per ml of water: 50 mM of phosphate buffer (pH 7.0), 0.1 mM of nitrocefin and sufficient enzyme (β-lactamase) in order to attain a ΔA/min. of about 0.1. The cleavage of the substrate, which is associated with a colour change, is carried out at 37° C. and is followed quantitatively at 482 nm with a spectral photometer.
(§3) The above-described cleavage of the chromogenic substrate by β-lactamases (experiment B) can be inhibited by adding compounds of formula I (inhibitors). Since it has been shown that the inhibitors irreversibly inactivate the β-lactamase in a time-dependent reaction, the reaction (cleavage of the substrate) is started by adding the substrate, in each case after a pre-incubation period of β-lactamase with inhibitor of 15 minutes. The determination of the β-lactamase-inhibiting activity of compounds of formula I in which R^1 signifies a group readily cleavable by hydrolysis is carried out in each case in the presence or absence of an esterase. As a measurement for the affinity of the respective tested inhibitor to the β-lactamase, which represents a measurement of the strength of the inhibitor, there serves that concentration which inhibits to 50% (IC 50 in μM/l) the cleavage of the substrate (nitrocefin) carried out under the above experimental conditions (experiment B) in the absence of an inhibitor. 4 to 6 experiments with differing concentrations of inhibitor were carried out in order to determine the IC 50. The determination of the IC 50 was carried out graphically.

[2] = molecular target: T1, β-lactamase from E. coli RTEM (Escherichia coli, UniProt P62593); assay: β-lactamase inhibition, nitrocefin cleavage, isolated enzyme from E. coli RTEM; assay type: biochemical; conditions: 15 min pre-incubation, nitrocefin substrate, 37° C., pH 7.0
T1 construct: there is obtained a clear crude extract which can be used as the enzyme source; endogenous in cells; host or cells: E. coli RTEM, sonicated cells, clear crude extract
Procedure: as §1, §2, §3

[3] = in the absence of an esterase, read-out: β-Lactamase inhibition IC50, P. vulgaris 1028, -E
[4] = in the presence of an esterase, read-out: β-Lactamase inhibition IC50, P. vulgaris 1028, +E

T1 sequence (P62593 24-286 limits assumed): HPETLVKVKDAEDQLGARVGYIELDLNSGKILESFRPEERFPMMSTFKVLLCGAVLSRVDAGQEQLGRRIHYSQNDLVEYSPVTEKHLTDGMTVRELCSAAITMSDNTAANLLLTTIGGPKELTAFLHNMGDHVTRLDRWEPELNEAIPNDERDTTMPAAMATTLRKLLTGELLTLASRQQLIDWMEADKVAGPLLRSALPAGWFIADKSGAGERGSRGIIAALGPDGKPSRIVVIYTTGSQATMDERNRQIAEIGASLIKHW

| SMILES | IC50 [1, 3] [nM] | IC50 [1, 4] [nM] | IC50 ([2]; in the absence of an esterase) [nM] | IC50 ([2]; in the presence of an esterase) [nM] |
| --- | --- | --- | --- | --- |
| CC(=O)C[C@]1(Sc2ccccc2)C(=O)N2[C@@H](C(=O)OCOC(=O)C(C)(C)C)C(C)(C)S[C@@H]21 [Example 4, methylene-(2S,5R,6S)-6-acetonyl-6-phenylthio-penicillanate pivalate] | 3700 | 300 | 800 | 2 |
| CC(=O)C[C@]1(N2CCOCC2)C(=O)N2[C@@H](C(=O)OCOC(=O)C(C)(C)C)C(C)(C)S[C@@H]21 [Example 3, methylene-(2S,5R,6S)-6-acetonyl-6-morpholino-penicillanate pivalate] | 4100 | 100 | 900 | 10 |
| CC(=O)C[C@@]1(SC(C)=O)C(=O)N2[C@@H](C(=O)OCOC(=O)C(C)(C)C)C(C)(C)S[C@@H]21 [Example 5, methylene-(2S,5R,6R)-6-acetonyl-6-acetylthio-penicillanate pivalate] | 4200 | 200 | 700 | 10 |
| CC(C=C1C(=O)N2[C@@H]1SC(C)(C)[C@@H]2C(=O)OCOC(=O)C(C)(C)C)=NO [Example 1, methylene-(2S,5R)-6-[2-(hydroxyimino)propylidene]pencillanate pivalate] | 460 | 35 | 60 | 2 |
